# Data taken from paper PMC6562610, “Inhibition of Hedgehog Signaling in Fibroblasts, Pancreatic, and Lung Tumor Cells by Oxy186, an Oxysterol Analogue with Drug-Like Properties” (Cells, 2019).
# Entries after “also recorded” stand apart in the source; their conditions may differ.
# Tests used:
# [1] = system: CAPAN-1 cells; assay: Cell counting assay, CAPAN-1; format: cell-based, human; details: 96 h
# Procedure: (§1) A549 and H2030 cells cultured in 12-well plates at 20% confluence were treated with Oxy186, HPI-1, Gant61, or GDC0449 for 96 hours and then trypsinized and suspended in fresh medium. An aliquot of cell suspension was applied to a hemocytometer and counted under a microscope.
# (§2) Figure 6 Inhibition of human pancreatic and lung cancer cell proliferation by Oxy186. (a,c) A549, (b) and (d) H2030, (e) PANC-1, and (f) CAPAN-1 cells were treated with the compounds as indicated in RPMI 1640 (a–d) or DMEM (e,f) containing 5% FBS for 96 h and then were trypsinized and counted. Data from a representative experiment are reported as the mean of triplicate determinations ± SD (* p < 0.05 vs. Control; ** p < 0.01 vs. control).
# [2] = system: A549 cells; assay: Cell counting assay, A549; format: cell-based, human; details: 96 h
# Procedure: as §1, §2
# [3] = system: Gli1 expression in H2030 cells; assay: Inhibition of Gli1 expression in H2030 cells, Q-RT-PCR; format: cell-based, human; details: 72 h
# Source text: (§3) NIH3T3-E1 fibroblasts were obtained from ATCC (Manassas, VA) and cultured, as previously described. CAPAN-1 and PANC-1 human pancreatic cancer cells were obtained from ATCC and cultured in Dulbecco’s Modified Eagle Medium (DMEM) containing 10% heat-inactivated fetal bovine serum (FBS) (Hyclone Laboratories, Logan, UT, USA) and antibiotics, as previously described. The human lung cancer cell lines A549 and H2030 were obtained from ATCC and cultured in RPMI-1640 containing 10% FBS. The human hepatoma cell line HepG2 was obtained from ATCC and cultured in DMEM containing 10% FBS. Mouse embryonic fibroblasts (MEFs) from suppressor of fused (Sufu) null mice (Sufu^−/−) were provided by Dr. Philip Beachy of Stanford University and cultured in DMEM containing 10% FBS. Gant61, SB431542 and vismodegib (GDC0449) were obtained from Cayman Chemical, HPI-1 was obtained from Abcam. For experiments, cells were treated in a medium containing 5% FBS.
# (§4) Total RNA was extracted with the RNeasy Plus Mini Kit from Qiagen, according to the manufacturer’s instructions. One microgram of RNA was reverse-transcribed using an iScript Reverse Transcription Supermix from Bio-Rad, to make single-stranded cDNA. The cDNAs were then mixed with Qi SYBR Green Supermix (Bio-Rad, Hercules, CA, USA) for quantitative RT-PCR assay using a Bio-Rad I-cycler IQ quantitative thermocycler. All PCR samples were prepared in triplicate wells in a 96-well plate. […] Fold changes in gene expression were calculated using the ΔΔCt method. […]
# (§5) Figure 4 Inhibition of Gli and Shh expression in (a) PDAC (PANC-1) and (b,c) human lung cancer cells (A549 and H2030, respectively) by Oxy186. Cells were treated with the compounds as indicated in DMEM or RPMI 1640 containing 5% FBS for (a) 48 or (b,c) 72 hours, then RNA was extracted and analyzed by Q-RT-PCR for the expression of Gli1 and normalized to GAPDH expression. (d) CAPAN-1 cells were treated with the compounds, as indicated, in DMEM containing 5% FBS for 72 h, then RNA was extracted and analyzed by Q-RT-PCR for the expression of Shh and normalized to GAPDH expression. […]
# [4] = system: Gli1 expression in A549 cells; assay: Inhibition of Gli1 expression in A549 cells, Q-RT-PCR; format: cell-based, human; details: 72 h
# Source text: as §3, §4, §5
# [5] = system: Shh expression in CAPAN-1 cells; assay: Inhibition of Shh expression in CAPAN-1 cells, Q-RT-PCR; format: cell-based, human; details: 72 h
# Source text: as §3, §4, §5
# [6] = system: Gli1 expression in PANC-1 cells; assay: Inhibition of baseline Gli1 expression in PANC-1 cells, Q-RT-PCR; format: cell-based, human; details: 48 h
# Source text: as §3, §4, §5
# [7] = system: H2030 cells; assay: Cell counting assay, H2030; format: cell-based, human; details: 96 h
# Procedure: as §1, §2
# [8] = system: PANC-1 cells; assay: Cell counting assay, PANC-1; format: cell-based, human; details: 96 h
# Procedure: as §1, §2
# [9] = Metabolic stability in mouse liver microsomes; format: in vitro ADME
# [10] = system: Hh target gene Gli1 expression in NIH3T3-E1 cells; assay: Inhibition of CAPAN-1 conditioned medium (ligand)-induced Gli1 mRNA expression, Q-RT-PCR; format: cell-based; details: NIH3T3 cells activated by CAPAN-1 CM Hh ligands, 72 h
# Source text: as §3
# Growth medium in confluent […] tissue culture plates of CAPAN-1 cells were replaced with 10 ml of fresh growth medium and cells were incubated for a total of 7 days. Conditioned medium (CM), containing Shh and Ihh, was collected and spun down to remove any detached cells and debris, aliquoted, and stored frozen at −80 °C [37].
# as §4, with “thermocycler.” for “thermocycler. All PCR samples were prepared in triplicate wells in a 96-well plate.”
# Figure 3 Inhibition of ligand-induced Hedgehog signaling. […] After 72 h, RNA was extracted and analyzed by Q-RT-PCR for the expression of Hh target genes Gli1 (a,b,d) and Ptch1 (c), and normalized to Oaz1 expression. […] Luciferase activity was measured and normalized to the Renilla luciferase activity. […]
# [11] = Pharmacokinetic study in mice, single oral dose; format: in vivo, balb/c mice; details: Figure 8b drug-like properties summary
# Procedure: In an initial assessment of the drug-like properties of Oxy186, we performed a pharmacokinetic (PK) study in mice. Oxy186, formulated in 4% ethanol, 15% DMSO, and 81% corn oil, was administered to balb/c mice by oral gavage as a single dose of 50 mg/kg.
# Figure 8 Drug-like properties of Oxy186. (a) A single dose of Oxy186 at 50 mg/kg, formulated in 4% ethanol/ 15% DMSO/ 81% corn oil, was administered to balb/c mice by oral gavage. Plasma samples were taken at 10 min, 30 min, 1, 2, 4, 6, 8, and 24 h, followed by LC/MS analysis of the plasma. (b) Evolution of Oxy186 from parent compound Oxy16 and their drug-like properties.
# [12] = system: LXR target gene Abca1; assay: Induction of LXR target gene Abca1 in NIH3T3 cells, Q-RT-PCR; format: cell-based, mouse
# Procedure: (§6) Total RNA was extracted with the RNeasy Plus Mini Kit from Qiagen, according to the manufacturer’s instructions. One microgram of RNA was reverse-transcribed using an iScript Reverse Transcription Supermix from Bio-Rad, to make single-stranded cDNA. The cDNAs were then mixed with Qi SYBR Green Supermix (Bio-Rad, Hercules, CA, USA) for quantitative RT-PCR assay using a Bio-Rad I-cycler IQ quantitative thermocycler. All PCR samples were prepared in triplicate wells in a 96-well plate. After 40 cycles of PCR, melt curves were examined in order to ensure primer specificity. Fold changes in gene expression were calculated using the ΔΔCt method. Primers used for mouse were as follows: Oaz1 (5’-CCACTGCTTCGCCAGAGAG-3’) and (5’-CCCGGACCCAGGTTACTA-3’), Gli1 (5’-[…]-3’ and 5’-[…]-3’), Ptch1 (5’-CCATCGGCGACAAGAACC-3’ and 5’-[…]-3’), Hip (5’-[…]-3’ and 5’-[…]-3’), and Abca1 (5’-[…]-3’ and 5’-[…]-3’). Primers used for human were as follows: SREBP1c (5’-CGCTCCTCCATCAATGACA-3’ and 5’-[…]-3’), GAPDH (5’-[…]-3’ and 5’-[…]-3’), SHH (5’-CGGAGCGAGGAAGGGAAAG-3’) and (5’-[…]-3’), and GLI1 (5’-GAAGCCGAGCCGAGTATC-3’ and 5’-[…]-3’).
# Figure 7 Induction of LXR target gene expression by Oxy186 and LXR agonist TO901317 (TO). (a) NIH3T3 cells and (b) HepG2 cells were treated with DMEM containing 5% FBS in the presence or absence of TO (2 µM) or Oxy186 (10 µM). […] Data from a representative experiment are reported as the mean of triplicate determinations ± SD (** p < 0.01 vs. control).
# [13] = Metabolic stability in human liver microsomes; format: in vitro ADME
# [14] = system: LXR target gene SREBP1c; assay: Induction of LXR target gene SREBP1c in HepG2 cells, Q-RT-PCR; format: cell-based, human; details: 2 µM, 72 h
# Procedure: as §6
# Figure 7 Induction of LXR target gene expression by Oxy186 and LXR agonist TO901317 (TO). (a) NIH3T3 cells and (b) HepG2 cells were treated with DMEM containing 5% FBS in the presence or absence of TO (2 µM) or Oxy186 (10 µM). […]
smiles,measurement,setting,value
"CS(=O)(=O)c1ccc(C(=O)Nc2ccc(Cl)c(-c3ccccn3)c2)c(Cl)c1 [GDC0449, vismodegib]",Anti-proliferation effect,[1],marginally effective
same,Inhibition of cell proliferation,[2]; 10 µM,not
same,Inhibition of expression of Gli1,[3]; 10 µM,significantly inhibited
same,Inhibition of expression of Gli1,[4]; 10 µM,significantly inhibited
same,Inhibition of Shh expression,[5],"inhibitory effects on Shh expression in CAPAN-1 cells, but to a lesser extent"
same,Inhibition of high baseline expression of Gli1,[6]; 10 µM,did not have a similar effect
CN(C)c1ccccc1CN1CCCN(Cc2ccccc2N(C)C)C1c1ccncc1 [Gant61],Anti-proliferation effect,[1],significant anti-proliferation effects
same,Inhibition of cell proliferation,[2]; 20 µM,significantly inhibited
same,Inhibition of expression of Gli1,[3]; 20 µM,significantly inhibited
same,Inhibition of expression of Gli1,[4]; 20 µM,significantly inhibited
same,Anti-proliferative effect,[7],significant anti-proliferative effect
same,Inhibition of Shh expression,[5],"inhibitory effects on Shh expression in CAPAN-1 cells, but to a lesser extent; also recorded: significant inhibition"
same,Anti-proliferation effect,[8],significant anti-proliferation effects
same,Inhibition of high baseline expression of Gli1,[6]; 20 µM,significantly inhibited
"CC(C)CCC(O)C(C)(O)C1CCC2C3CC=C4CC(O)CCC4(C)C3CCC21C [Oxy16, 20-α, 22(R)-dihydroxycholesterol, reference compound]",remaining at 1 h,"[9]; 60 min, read-out: MLM, % Remaining after 60 min",5%
same,half-life,"[9]; read-out: MLM, Half-Life",14 min
same,IC50,[10],> 5 µM
same,In vivo availability / stability (Figure 8b summary),[11],Unstable in vivo
same,LXR agonism (Figure 8b summary),[12]; Figure 8b drug-like properties summary,Stronger LXR agonist
same,"HLM, Half-Life",[13],15 min
same,remaining at 1 h,"[13]; 60 min, read-out: HLM, % Remaining after 60 min",6%
same,half-life,"[13]; human, liver microsomes, read-out: HLM, Half-Life",< 15 min
"O=S(=O)(c1ccccc1)N(CC(F)(F)F)c1ccc(C(O)(C(F)(F)F)C(F)(F)F)cc1 [TO901317, reference compound]",Induction of expression of LXR target gene Abca1,"[12]; NIH3T3-E1 cells, 2 µM, 72 h",significantly induced
same,Induction of expression of SREBP1c,[14],significantly induced
